Test results published in patent publication US6586596B2, “Acetylcholine enhancers” (priority 1998, dated 2003).

Key:
BF-lesioned rats = assay: Water maze, BF lesion-induced deficit in spatial learning; settings: oral; Cm.A 0.3, 1.0 and 3.0 mg/kg/day, THA 1.0 mg/kg/day, E2020 0.3 and 1.0 mg/kg/day
Procedure: For each training trial, the rat was placed in the water (22° C.) such that the animal faced the wall of a circular pool (150 cm in diameter, 45 cm in height), and started at one of five starting points (selected randornly). In each trial, the latency period to escape onto the hidden platform (fixed in the middle of one quadrant, 2 cm below the surface of water) was recorded. These procedures were repeated once or twice a day during the experimental period.

[1] = molecular target: T1, peripheral 5-HT3 receptor (Rattus norvegicus, UniProt P35563); assay: 5-HT-evoked von Bezold-Jarish Effect (B.J.E.) in anesthetized rats; type: in vivo; settings: Cm.A 3 to 10 mg/kg; for inhibition of 5-HT-evoked B.J.E. (reflex bradycardia): i.v. pretreatment, E2020 0.1~1 mg/kg, 5-HT 20 μg/kg i.v.; for blood pressure, heart rate and other signs: i.v., THA 10 mg/kg, E2020 higher than 1 mg/kg, data not shown
T1 construct: from tissue; host or cells: whole anesthetized rat (peripheral receptors)
T1 sequence (P35563 24-483): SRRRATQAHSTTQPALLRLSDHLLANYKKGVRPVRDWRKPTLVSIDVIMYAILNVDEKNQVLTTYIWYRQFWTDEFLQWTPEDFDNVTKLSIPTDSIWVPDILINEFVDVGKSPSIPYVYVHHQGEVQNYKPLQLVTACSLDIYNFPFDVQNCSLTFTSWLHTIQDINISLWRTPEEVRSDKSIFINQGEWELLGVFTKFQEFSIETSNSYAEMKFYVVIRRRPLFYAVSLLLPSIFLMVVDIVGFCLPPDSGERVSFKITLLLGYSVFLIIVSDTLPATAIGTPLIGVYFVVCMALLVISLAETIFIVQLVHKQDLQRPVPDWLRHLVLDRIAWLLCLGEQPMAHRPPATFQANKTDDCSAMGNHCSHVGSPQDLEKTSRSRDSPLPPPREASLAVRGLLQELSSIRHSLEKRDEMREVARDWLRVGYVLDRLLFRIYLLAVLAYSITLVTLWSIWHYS
Procedure: A bolus i.v. injection of serotonin (5-HT) (20 μg/kg) caused reflex bradycardia transiently (von Bezold—Jarish Effect: B.J.E.) via activation of peripheral 5-HT3 receptor in anesthetized rats.

5-HT3 receptor = molecular target: T2, 5-HT3 receptor (Mus musculus, UniProt P23979); assay: serotonin 5-HT3 binding assay (NovaScreen), NIE-115 cells; settings: 20 mM HEPES pH 7.4, 150 mM NaCl, 25° C., 60 minutes
T2 construct: The receptor source was NIE-115 cells; host or cells: NIE-115 cells
T2 sequence (P23979 24-489): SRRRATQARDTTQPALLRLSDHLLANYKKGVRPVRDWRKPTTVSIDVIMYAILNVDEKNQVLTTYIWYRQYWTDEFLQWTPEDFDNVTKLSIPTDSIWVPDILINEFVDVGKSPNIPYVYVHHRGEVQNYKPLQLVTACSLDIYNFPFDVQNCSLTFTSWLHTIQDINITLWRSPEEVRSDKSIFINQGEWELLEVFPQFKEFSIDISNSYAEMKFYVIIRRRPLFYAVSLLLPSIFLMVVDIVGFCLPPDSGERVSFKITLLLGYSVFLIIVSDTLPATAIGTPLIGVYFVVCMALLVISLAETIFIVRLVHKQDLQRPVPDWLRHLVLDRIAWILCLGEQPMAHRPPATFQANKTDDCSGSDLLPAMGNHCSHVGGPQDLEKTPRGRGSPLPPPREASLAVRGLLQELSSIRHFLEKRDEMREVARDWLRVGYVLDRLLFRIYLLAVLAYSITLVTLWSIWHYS
Procedure: Binding affinity of a variety of compounds, including Cm.A, for the 5-HT3 receptor was investigated using a commercially available serotonin 5-HT3 binding assay (NovaScreen, Hanover, Md.). The receptor source was NIE-115 cells (See Lunnis, S. C. R. and Kilparick, G. J., 189: Evr. Jrnl. Pharmacol. 223 (1990); and Hoyer, D. and Heijt, H. C., 33 Mol. Pharmacol., 303 (1988)). The reference compound utilized was “MDL 72222,” a 5-HT3 receptor antagonist. Reactions were carried out in 20 mM HEPES (pH 7.4) containing 150 mM NaCl at 25° C. for 60 minutes. The reaction was terminated by rapid vacuum filtration onto glass fiber filters. Radioactivity trapped onto the filters was determined and compared with the control values.

[2] = test system: extracellular levels of ACh in hippocampus; assay: ACh release in hippocampus, microdialysis in freely moving rats; type: in vivo
Procedure: ACh content in perfusate obtained from hippocampus (Bregma, A: −5.8 mm, L: 5.0 mm, H: 4.0 mm) of brain were continuously detected by means of HPLC and ECD through the microdialysis system using freely moving rats (See Messamore and Kawashima, supra). After an equilibration period, five fractions were allowed to obtain basal ACh content. Test substances were injected i.p., and thereafter, microdialytic analysis was conducted for 3 hr.

[3] = test system: scopolamine-induced spatial learning deficit; assay: Water maze, scopolamine-induced deficit in spatial learning; type: in vivo, rats; settings: p.o. 60 minutes before each trial; Cm.A 1.0 mg/kg/day; scopolamine 0.5 mg/kg i.p.
Procedure: A total of 6 trials (2 trials on 1st day, and 1 trial after 2nd day) were conducted to observe the effects of the test compounds. Scopolamine (0.5 mg/kg, i.p.) and the test compounds (p.o.) were administered 30 and 60 minutes before each trial, respectively.

[4] = test system: extracellular levels of ACh in striatum; assay: ACh release in striatum, microdialysis in freely moving rats; type: in vivo
Procedure: ACh content in perfusate obtained from striatum (Bregma, A: 0.2 mm, L: 3.0 mm, H: 4.0 mm) of brain were continuously detected by means of HPLC and ECD through the microdialysis system using freely moving rats. See Messamore, E., et al, 32 Neuropharmacol. […] After an equilibration period of more than 2 hours, five fractions were allowed to obtain basal ACh content. Compounds were injected i.p., and thereafter, a microdialytic analysis was conducted for 3 hours.

Cynomologous monkeys [5] = assay: Hepatotoxic analysis, four-week oral study; type: in vivo
Procedure: During the testing period, these animals were dosed with three different regimens: first, animals were dosed with 10 mg/kg/day for 7 days, followed by 32 days-washout period, second, animals were dosed with 5 mg/kg/day for 14 days, and thereafter the animals were dosed with 10 mg/kg/day for 7 days. The following parameters were examined: body weight, clinical signs, food consumption, blood biochemistry (GOT, GPT, ALP, LDH, γ-GTP, ChE, Bil, T.Pro, Alb, A/G ratio, T.Cho, NEFA, TG).

Cynomologous monkeys [6] = assay: Hepatotoxic analysis, two-week oral study; type: in vivo; settings: monkey, in vivo, po, 5 mg/kg/day
Excerpt: The following parameters were examined: body weight, clinical signs, food consumption, blood biochemistry (GOT, GPT, ALP, LDH, γ-GTP, ChE, Bil, T.Pro, Alb, A/G ratio, T.Cho, NEFA, TG). After the administration period, the animals were sacrificed and autopsied. Organs and tissues were weighed, then examined histopathologically.

Compound | deficit of spatial learning (escape latency) (BF-lesioned rats) | inhibition of 5-HT-evoked B.J.E. (reflex bradycardia) [1] | blood pressure, heart rate and other signs [1] | IC50 (5-HT3 receptor; read-out: IC50) [nM] | Ki (5-HT3 receptor; read-out: Ki) [nM] | increase of ACh content compared with Cm.A ([2]; hippocampus, i.p.) | centrally acting cholinergic symptoms (tremor, chewing and yawning) ([2]; rat, in vivo, ip) | deficit in spatial learning (escape latency) [3] | centrally acting cholinergic symptoms (tremor, chewing and yawning) ([4]; rat, in vivo, ip) | increase of ACh content compared with Cm.A ([4]; striatum, young rats, i.p.) | Blood biochemistry (Cynomologous monkeys [5]; F, oral, four weeks) | Clinical signs softstool (Cynomologous monkeys [5]; monkey, in vivo, po) | clinical signs (Cynomologous monkeys [5]; monkey, in vivo, po) | food consumption and body weight (Cynomologous monkeys [5]; monkey, in vivo, po) | blood biochemical tests (Cynomologous monkeys [5]; oral, four weeks) | Clinical signs softstool (Cynomologous monkeys [6]) | Clinical signs vomiting (Cynomologous monkeys [6]) | Food consumption (Cynomologous monkeys [6])
COc1cc2c(cc1OC)C(=O)C(CC1CCN(Cc3ccccc3)CC1)C2 (stereo not drawn) [E2020, donepezil] | also improved this type of deficit | no inhibitory effect on B.J.E. | caused hypertension, salivation and tremor |  |  |  |  |  |  |  |  |  |  |  |  |  |  | 
CN1[C@@H]2CC[C@H]1C[C@@H](OC(=O)c1cc(Cl)cc(Cl)c1)C2 [MDL 72222] |  |  |  | 8.99 | 4.14 |  |  |  |  |  |  |  |  |  |  |  |  | 
Nc1c2c(nc3ccccc13)CCCC2 [THA, 1,2,3,4-tetrahydro-9-acridinamine, reference compound] | also improved this type of deficit | slight tendency to decrease the reflex | caused severe hypertension, salivation and tremor |  |  | somewhat weak | more apparent as compared with Cm.A | no significant effect | greater severity as compared with Cm.A | increased the ACh content more potently and long-lastingly than Cm.A | ↓: CHE | +++ | severe vomiting and soft stools or diarrhea | decrease in body weight and food consumption | increase in TG and NEFA, decrease in ChE and T.Cho | − | + | −
